Results: patent US20250262161A1, “COMPOSITION, METHOD FOR ITS PREPARATION AND ITS USE FOR INCREASING THE SOLUBILITY OF ACTIVE SUBSTANCES” (Philipps-Universität Marburg, priority 2021, published 2025)

Assay: Solubility of curcumin in water (amount dissolved, UV/Vis measurement)
Type: physicochemical
Details: visual yellow colouring of supernatant
Protocol: Curcumin was first incorporated into eggshell flour. Two different methods were used for this purpose. […] Ethanol was evaporated without stirring (HP). […] Ethanol was evaporated with stirring (R). For comparison, curcumin was mixed with eggshell meal (physical mixture=PM) and added to water as a pure substance (bulk). From all samples, the amount of dissolved curcumin was measured. […] The dissolved amount of curcumin was determined at different time points by UV/Vis measurement. […] For method 2, the solubility was approximately 50 times higher.
The physical mixture contained similar amounts.

dissolution of curcumin in the water phase (discolouration of aqueous supernatant): no dissolution of curcumin occurred
Structure (SMILES): COc1cc(/C=C/C(=O)CC(=O)/C=C/c2ccc(O)c(OC)c2)ccc1O [pure substance, Curcumin]
